Measured values as given in PubChem BioAssay AID1996.
Converted amounts (≈) assume the structure as drawn.

Settings: buffer; pH 7.4; 200.0 µM

SMILES	solubility kinetic
CCN(CCS(=O)(=O)c1ccc(Cl)cc1)C(=O)Nc1ccc(Cl)cc1	43.2 µg/mL (≈ 108 µM)
Nc1ncc(-c2ccccc2)c(-c2ccc(OCc3ccccc3)cc2O)n1	0.4 µg/mL (≈ 1.08 µM)
O=C(COC(=O)c1c(Cl)ccc(Cl)c1Cl)NCC1CCCO1 (centres undefined)	> 55 µg/mL
O=C(Nc1ccc(OCC(F)(F)C(F)F)cc1)c1ccncc1	> 49.2 µg/mL
Cc1ccc(S(=O)(=O)[O-])cc1.Cn1cc[n+](C)c1COc1ccc(C=O)cc1	> 60.4 µg/mL
CCOC(=O)CC1C(=O)NCCN1S(=O)(=O)c1ccc(C)cc1 (centres undefined)	> 51.1 µg/mL
CCCCOc1ccc(C(=O)Nc2ccc3c(c2)OCO3)cc1	< 0.7 µg/mL
CN(C)c1ccc(C(=O)NCc2ccc3c(c2)CCO3)cc1	34.3 µg/mL (≈ 116 µM)
COc1ccc(CC(=O)Nc2ccncc2Cl)cc1	> 41.5 µg/mL
COc1ccc(C2c3ccc(O)cc3Oc3ncn(CC(C)C)c(=N)c32)cc1 (centres undefined)	53.8 µg/mL (≈ 143 µM)
CCCc1cc(=O)[nH]c(SCC(=O)Nc2cc(C)on2)n1	> 46.3 µg/mL
CS(=O)(=O)N1CCSC1c1ccc(Br)cc1 (centres undefined)	47.8 µg/mL (≈ 148 µM)
C=CCN(Cc1cccs1)C(=O)COc1ccc2c(c1)OCO2	> 49.7 µg/mL
CCN(CC)Cc1c(O)ccc2c(=O)c(Oc3ccccc3OC)c(C)oc12	> 57.5 µg/mL
CC1CCCC(C)N1C(=O)COC(=O)c1cc(F)c(F)cc1Cl (centres undefined)	> 51.9 µg/mL
C=CCN=C1S/C(=C\N(C)C)C(=O)N1S(=O)(=O)c1ccc(C)cc1	2.8 µg/mL (≈ 7.66 µM)
O=S(=O)(c1ccc2oc(=S)[nH]c2c1)N1CCCCC1	> 44.8 µg/mL
CCN(CC)CCNC(=O)Cn1ncc2ccccc2c1=O	> 45.4 µg/mL
O=[N+]([O-])c1cccc(-c2cc3ccccc3[nH]2)c1	< 0.3 µg/mL

SMILES	solubility kinetic
CCCN1C2CCCC1CC(NC(=S)Nc1ccc(OC)cc1)C2 (centres undefined)	> 52.1 µg/mL
O=C1Nc2ccccc2C1Cc1ccc(OC(F)(F)F)cc1 (centres undefined)	37.3 µg/mL (≈ 121 µM)
COc1cc2ccccc2cc1C(=O)Nc1ccccc1C	< 0.6 µg/mL
CN(C)/C=C1/NC(=S)NC1=O	> 25.7 µg/mL
Cl.O=C(c1cc2c(s1)CCCC2)N1CCN(CCO)CC1	> 49.6 µg/mL
O=C(Nc1nc2ccccc2[nH]1)c1ccccc1O	0.2 µg/mL (≈ 0.79 µM)
COc1ccc(C(=O)Nc2nc(-c3ccccc3)c(C(C)=O)s2)c(OC)c1	0.7 µg/mL (≈ 1.83 µM)
CCOC(=O)N1CCN(Cc2ccc(O)c3ncccc23)CC1	34.3 µg/mL (≈ 109 µM)
O=C1N=C(N2CCN(c3ccccc3)CC2)S/C1=C/c1ccco1	17.4 µg/mL (≈ 51.3 µM)
CC(C)N(Cc1ccccc1)C(=S)NC1CCCCC1	13.1 µg/mL (≈ 45.1 µM)
O=C(CCCOc1ccccc1)NCCc1nc2ccccc2[nH]1	> 48.5 µg/mL
Cc1c(Cl)cccc1NC(=O)NCc1cccnc1	> 41.4 µg/mL
Cc1ccc(NC(=O)CN(C)C(=O)COc2cccc3ccc(C)nc23)cc1	3.9 µg/mL (≈ 10.3 µM)
O=C(c1cc(F)c(F)cc1Cl)N1CCN(c2ncccn2)CC1	49.3 µg/mL (≈ 146 µM)
Cc1ccc(S(=O)(=O)NC(=O)Nc2ccc(F)c(F)c2)cc1	44.1 µg/mL (≈ 135 µM)
O=C(O)Cc1sc(NCc2ccco2)nc1-c1ccccc1	46.8 µg/mL (≈ 149 µM)
NC(=Nc1ccccc1)Nc1ccccc1	29.5 µg/mL (≈ 140 µM)
CC(C)(C)c1ccc(N2C(=N)SCC2=O)cc1	15.8 µg/mL (≈ 63.6 µM)
CC(C)CCNC(=O)C(=O)NCc1ccccc1	2.6 µg/mL (≈ 10.5 µM)

SMILES	solubility kinetic
CCCOC(=O)C1=C(C)NC(=O)NC1c1cccc2ccccc12 (centres undefined)	< 0.3 µg/mL
CCO/C=C1/C(=O)N(c2ccccc2OC)C(=O)c2ccccc21	> 48.5 µg/mL
Cc1ccc(C(=O)Nc2nc(-c3ccc(F)cc3)cs2)o1	4.4 µg/mL (≈ 14.6 µM)
Fc1ccc(CNCc2ccco2)cc1	11.8 µg/mL (≈ 57.5 µM)
C=CCn1c(SCC(N)=O)nnc1-c1cnccn1	> 41.4 µg/mL
Cc1cccc(C(=O)OCC(=O)NC2CCCCCCC2)c1	21.6 µg/mL (≈ 71.2 µM)
Cc1ccc[n+](Cc2ccc([N+](=O)[O-])cc2)c1.[Br-]	> 46.4 µg/mL
Cc1ccc(N2C(=O)CC(=O)NC2=O)cc1Cl	> 37.9 µg/mL
COc1ccc2cc(C(=O)N(C)Cc3ccccc3)[nH]c2c1	< 0.3 µg/mL
CC1CC1C(=O)Nc1nc(-c2ccc(Cl)s2)cs1 (centres undefined)	0.6 µg/mL (≈ 2.01 µM)
COc1ccc(C2NC(=O)NC3=C2C(=O)CCC3)cc1 (centres undefined)	> 40.8 µg/mL
COc1c(C)cccc1C(=O)NCCCNC(=O)c1ccc(C)nc1	46.8 µg/mL (≈ 137 µM)
O=C(O)COCC(=O)NCc1csc2ccc(Cl)cc12	> 47.1 µg/mL
Cn1ccnc1SCC(=O)c1ccc(C#N)cc1	> 38.6 µg/mL
O=C(CCn1c(=O)oc2ccccc21)Nc1ccc(C(=O)O)cc1	> 48.9 µg/mL
O=C(CN1CCCCCCC1)NC(=O)NC1CCCCC1	30.2 µg/mL (≈ 102 µM)
O=C(NC1CCCCC1)c1c2c(nc3ccccc13)CCC2	25.9 µg/mL (≈ 88 µM)
O=C(CSc1cccc2cccnc12)N/N=C/c1ccncc1	> 48.4 µg/mL

Second part, the compound after the results:

solubility kinetic	SMILES
> 47.4 µg/mL	CC(=O)Nc1ccc(S(=O)(=O)NC(C(=O)O)C(C)O)cc1 (centres undefined)
0.7 µg/mL (≈ 2.42 µM)	O=C1Nc2ccccc2O/C1=C\c1c(F)cccc1Cl
39.9 µg/mL (≈ 132 µM)	COc1cccc(OCC(=O)O/N=C(\N)c2ccncc2)c1
34 µg/mL (≈ 130 µM)	O=C(NCc1ccccn1)Nc1ccc(Cl)cc1
> 65.4 µg/mL	CCCCn1c(N)c(N(CC)C(=O)CCNC(=O)c2ccc(Cl)cc2)c(=O)[nH]c1=O
3.1 µg/mL (≈ 12 µM)	COC(=O)c1ccc(SCc2ccccc2)nc1
> 51.8 µg/mL	O=C(O)CC(NC(=O)C12CC3CC(CC(C3)C1)C2)c1ccc(F)cc1 (centres undefined)
< 0.3 µg/mL	Cc1nc(SCc2ccc(F)cc2)c2oc3ccccc3c2n1
> 48.8 µg/mL	O=C(c1ccc2c(c1)OCCO2)N1CCN(c2ccccn2)CC1
< 0.3 µg/mL	O=C(NCc1csc2ccc(Cl)cc12)Nc1ccccc1
0.4 µg/mL (≈ 1.42 µM)	Cc1cccc(NC(=O)NCCCCc2ccccc2)c1
50.7 µg/mL (≈ 137 µM)	O=C(NCCC1=CCCCC1)C1CCN(S(=O)(=O)N2CCCC2)CC1
46.6 µg/mL (≈ 129 µM)	COc1ccc(C2(CNS(=O)(=O)c3ccccc3)CCOCC2)cc1
50.7 µg/mL	CC(C)COc1ccc(Br)cc1CNC(C)(C)C.Cl
42.6 µg/mL (≈ 117 µM)	NS(=O)(=O)c1ccc(CCNC(=O)CSCc2ccccc2)cc1
49.7 µg/mL (≈ 137 µM)	Cc1ccc(C(=O)NCCCNC(=O)COc2ccc(Cl)cc2)cn1
> 40.9 µg/mL	CC(C)CN1C(=O)NC2(CCCc3ccccc32)C1=O (centres undefined)
0.3 µg/mL (≈ 1.01 µM)	COc1ccc(NC(=O)/C(C#N)=C/c2ccc[nH]2)c(OC)c1
> 46.2 µg/mL	CC(C)(C)NC(=O)C(=O)NNC(=O)c1cccc([N+](=O)[O-])c1
> 42.5 µg/mL	COc1cc(CC2C(=O)Nc3ccccc32)cc(C)c1O (centres undefined)
< 0.3 µg/mL	Clc1ccc2nc(-c3ccccc3)nc(C(Cl)Cl)c2c1

solubility kinetic	SMILES
> 50.3 µg/mL	CC(NC(=O)c1ccccc1C(=O)O)c1ccc(-n2ccnc2)cc1 (centres undefined)
24.1 µg/mL (≈ 115 µM)	Cc1ccsc1CNC1CCCCC1
> 50.8 µg/mL	Cc1ccc(S(=O)(=O)NCC(=O)NCC2CCCCC2)cc1C
32.1 µg/mL (≈ 98.1 µM)	Cc1ccc2nc(NC(=O)COC(=O)c3ccccn3)sc2c1
> 48.1 µg/mL	COc1ccc(CNC(=O)C2CCC(=O)N2C(C)C)c(OC)c1 (centres undefined)
> 44.9 µg/mL	CCOC(=O)COc1ccc(S(=O)(=O)NC2CC2)cc1
> 49.2 µg/mL	COCCN1C(=O)c2ccc(C(=O)NCc3ccco3)cc2C1=O
> 76 µg/mL	COc1ccc(CCNC(=O)COC(=O)c2cc(S(=O)(=O)N3CCOCC3)ccc2C)cc1OC
1.4 µg/mL (≈ 4.69 µM)	CNC(=O)c1ccc(NC(=O)/C=C/c2cccc(F)c2)cc1
< 0.8 µg/mL	Cc1c(CC(=O)Nc2ccc(Cl)cc2)sc2ccc(Cl)cc12
33 µg/mL (≈ 106 µM)	Cc1ccc2nc(SCC(=O)c3ccccc3)nc(=O)n2c1
0.7 µg/mL (≈ 2.12 µM)	O=C(CCC(=O)c1ccc(-c2ccccc2)cc1)Nc1cccnc1
> 44.3 µg/mL	O=C(CSc1nccc(=O)[nH]1)NC1CCCCCCC1
> 56.9 µg/mL	Cn1c(=O)n(CCO)c(=O)c2c1nc(Br)n2Cc1ccccc1
< 0.6 µg/mL	Cc1cccc(NC(=O)CCCc2ccccc2)c1C
16.1 µg/mL (≈ 50.8 µM)	OC(CN1CCN(c2cccc(Cl)c2)CC1)c1ccccc1 (centres undefined)
49.9 µg/mL (≈ 147 µM)	COc1ccccc1OCCCCn1c(C(C)O)nc2ccccc21 (centres undefined)
11.7 µg/mL (≈ 37.2 µM)	CCOC(=O)C(Cc1ccc(Cl)cc1Cl)c1ccno1 (centres undefined)
> 40.5 µg/mL	CC1CCN(C(C(=O)O)c2ccccc2)CC1.Cl (centres undefined)
> 40.1 µg/mL	O=C(CCC(=O)c1ccccc1)NCc1ccccc1
29.1 µg/mL (≈ 126 µM)	CCc1ccccc1NC(=O)Nc1ccon1

solubility kinetic	SMILES
6.6 µg/mL (≈ 20.6 µM)	Cc1nc(Cl)sc1C(=O)Nc1ccc(C(F)(F)F)cc1
> 47.2 µg/mL	CCOc1ccc(C(=O)C(C)OC(=O)c2cnc(C)cn2)cc1 (centres undefined)
40.5 µg/mL	O=c1[nH]c2ccccc2c(O)c1-[n+]1ccccc1.[Cl-]
> 58.3 µg/mL	CC(=O)c1c(C)[nH]c(C(=O)COC(=O)CN2C(=O)C3CCCCC3C2=O)c1C (centres undefined)
42.4 µg/mL (≈ 138 µM)	N#C/C(=C\c1ccc(F)cc1F)S(=O)(=O)c1ccccn1
3.3 µg/mL (≈ 10.9 µM)	COc1ccccc1CNC(c1ccccc1)c1ccccc1
14.5 µg/mL (≈ 51.2 µM)	Cc1ccc(NC(=O)C2COc3ccccc3O2)cc1C (centres undefined)
38 µg/mL (≈ 113 µM)	COc1ccc(CCNC(=O)c2cccc3ccccc23)cc1OC
> 51.3 µg/mL	O=C(NCc1ccco1)c1ccc(COc2ccccc2[N+](=O)[O-])o1
> 50.5 µg/mL	COc1ccccc1NS(=O)(=O)c1ccc2[nH]c(=S)oc2c1
1 µg/mL (≈ 3.55 µM)	Cc1ccc(-c2onc3ccc(C4OCCO4)cc23)cc1
48.1 µg/mL (≈ 130 µM)	Cc1ccc(C23CC4CC(CC(C(=O)NC(C(=O)O)C(C)C)(C4)C2)C3)cc1 (centres undefined)
25.9 µg/mL (≈ 85.4 µM)	O=C(c1cc([N+](=O)[O-])ccc1N1CCCC1)N1CCCCC1
19 µg/mL (≈ 71.1 µM)	Cc1c(CCO)c(=O)n2c([nH]c3ccccc32)c1C#N
> 46.8 µg/mL	COc1cc2c(cc1OC)C(c1cccc([N+](=O)[O-])c1)=NCC2
> 50.2 µg/mL	O=C(Nc1ccc(N2C(=O)CCC2=O)cc1Cl)c1cccs1
> 48.8 µg/mL	N#CCOc1coc(CN2CCN(c3ccccc3)CC2)cc1=O
22.7 µg/mL (≈ 65 µM)	Cc1onc(-c2ccccc2)c1NC(=O)N(Cc1ccccc1)C(C)C
51.6 µg/mL (≈ 141 µM)	O=C(NC1CCN(Cc2ccccc2)CC1)c1ccc2c(c1)OCCCO2
32.9 µg/mL (≈ 111 µM)	COc1ccc(NS(=O)(=O)c2cn(C)cn2)cc1OC
0.3 µg/mL (≈ 0.903 µM)	Nc1nc(NCc2ccco2)nc(NC2CCCCC2)c1[N+](=O)[O-]
